{"source": "paper PMC9786051", "about": "“Natural Product 2-Oxokolavenol Is a Novel FXR Agonist” (Molecules, 2022)", "key": {"[1]": {"target": "T1, Farnesoid X receptor (FXR) (Homo sapiens, UniProt Q96RI1)", "T1 construct": "gene NR1H4; 6His-FXR-LBD (residues 243-472aa)", "T1 sequence (Q96RI1 257-486)": "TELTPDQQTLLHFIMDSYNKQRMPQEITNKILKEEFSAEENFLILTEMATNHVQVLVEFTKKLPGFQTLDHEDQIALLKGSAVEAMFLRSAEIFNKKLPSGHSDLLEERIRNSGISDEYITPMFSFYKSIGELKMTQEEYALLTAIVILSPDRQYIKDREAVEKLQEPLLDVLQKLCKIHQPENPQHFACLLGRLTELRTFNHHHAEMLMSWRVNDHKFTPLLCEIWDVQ", "assay": "AlphaScreen coactivator recruitment with purified FXR-LBD; luciferase reporter", "type": "biochemical"}, "[2]": {"target": "T1, Farnesoid X receptor (FXR)", "assay": "AlphaScreen coactivator recruitment with purified FXR-LBD; also luciferase reporter (EC50 […]) and M265I/Y369F mutagenesis", "type": "binding"}}}
{"smiles": "CC1=CCC[C@@H]2[C@@](C)(CC/C(C)=C/CO)[C@H](C)CC[C@@]12C", "note": "[kolavenol]", "values": [{"measurement": "AlphaScreen coactivator recruitment with purified FXR-LBD; luciferase reporter", "setting": "[1]", "result": "motifs bound to FXR-LBD in response to 2-oxokolavenol, 2-oxokolavelool, kolavenol, or OCA in the AlphaScreen assay"}]}
{"smiles": "CC1=CC(=O)C[C@@H]2[C@@](C)(CC/C(C)=C/CO)[C@H](C)CC[C@@]12C", "note": "[2-oxokolavenol]", "values": [{"measurement": "EC50", "setting": "[2]", "result": "~3.7", "unit": "µM"}]}
